This note sets out measurements from ChEMBL document CHEMBL3232999, “Computer-aided identification of novel 3,5-substituted rhodanine derivatives with activity against Staphylococcus aureus DNA gyrase” (Bioorg Med Chem, 2014).

Values after ≈ are worked out from the molar mass of the structure shown. Active and inactive are the calls of the source. The calls are words filed in the database; no cut-off is given here.

The subject of test [1] is Staphylococcus aureus. As to the kind of experiment: Antimicrobial activity against methicillin-resistant Staphylococcus aureus ATCC 33592 after 24 hrs by two-fold serial dilution method. Format: functional. The conditions noted are these: ATCC 33592, 24 h.
In test [2] the test system is Staphylococcus aureus. As to the kind of experiment: Antimicrobial activity against Staphylococcus aureus ATCC 6538 after 24 hrs by two-fold serial dilution method. It counts as functional. The note with it: ATCC 6538, 24 h.
For test [3], the system named is Escherichia coli. As to the kind of experiment: Antimicrobial activity against Escherichia coli MG1655 after 24 hrs by two-fold serial dilution method. The conditions noted are these: MG1655, 24 h. It counts as functional.
A further test has as its target DNA gyrase subunit B (Staphylococcus aureus, UniProt P0A0K8). As to the kind of experiment: Inhibition of Staphylococcus aureus DNA gyrase subunit B ATPase activity assessed as consumption of inorganic phosphate by PNP-based absorbance assay.
Test [4] concerns Escherichia coli. As to the kind of experiment: Inhibition of Escherichia coli DNA gyrase-mediated supercoiling of relaxed DNA using N0471S as substrate after 30 mins by using […] staining-based agarose gel electrophoresis.
For test [5], the system named is Staphylococcus aureus. As to the kind of experiment: Antimicrobial activity against Staphylococcus aureus carolina after 24 hrs by two-fold serial dilution method. It counts as functional.
The target of test [6] is T1, DNA gyrase (Staphylococcus aureus) (UniProt P0A0K8+P20831). As to the kind of experiment: Inhibition of Staphylococcus aureus DNA gyrase-mediated supercoiling of relaxed DNA using N0471S as substrate at 20 uM after 30 mins by using […] staining-based agarose gel electrophoresis. It counts as protein-complex assay.
In test [7] the target is DNA gyrase subunit B (Staphylococcus aureus) (UniProt P0A0K8). The test is described as follows: Inhibition of Staphylococcus aureus DNA gyrase subunit B ATPase activity assessed as consumption of inorganic phosphate at 30 uM by PNP-based absorbance assay relative to control; values are per cent of control.
For test [8] the target is unchanged. As to the kind of experiment: Inhibition of Staphylococcus aureus DNA gyrase subunit B ATPase activity assessed as consumption of inorganic phosphate at 300 uM by PNP-based absorbance assay relative to control; values are per cent of control.
For test [9] the target is unchanged. The test is described as follows: Inhibition of Staphylococcus aureus DNA gyrase subunit B ATPase activity assessed as consumption of inorganic phosphate at 10 uM by PNP-based absorbance assay relative to control; values are per cent of control.
Test [10] deals with Staphylococcus aureus. The test is described as follows: Antimicrobial activity against Staphylococcus aureus ISP 794 after 24 hrs by two-fold serial dilution method. Format: functional. The note with it: ISP 794, 24 h.
For test [11], the target named is DNA gyrase subunit B (Staphylococcus aureus) (UniProt P0A0K8). The test is described as follows: Inhibition of Staphylococcus aureus DNA gyrase subunit B ATPase activity assessed as consumption of inorganic phosphate at 100 uM by PNP-based absorbance assay relative to control; values are per cent of control.
Test [12] deals with T1, DNA gyrase (Staphylococcus aureus). The test is described as follows: Inhibition of Staphylococcus aureus DNA gyrase-mediated supercoiling of relaxed DNA using N0471S as substrate at 160 to 500 uM after 30 mins by using […] staining-based agarose gel electrophoresis. Format: protein-complex assay.
Test [13] has the same target. The test is described as follows: Inhibition of Staphylococcus aureus DNA gyrase-mediated supercoiling of relaxed DNA using N0471S as substrate at 160 uM after 30 mins by using […] staining-based agarose gel electrophoresis. It counts as protein-complex assay.

T1 sequence (P0A0K8 2-644 limits assumed): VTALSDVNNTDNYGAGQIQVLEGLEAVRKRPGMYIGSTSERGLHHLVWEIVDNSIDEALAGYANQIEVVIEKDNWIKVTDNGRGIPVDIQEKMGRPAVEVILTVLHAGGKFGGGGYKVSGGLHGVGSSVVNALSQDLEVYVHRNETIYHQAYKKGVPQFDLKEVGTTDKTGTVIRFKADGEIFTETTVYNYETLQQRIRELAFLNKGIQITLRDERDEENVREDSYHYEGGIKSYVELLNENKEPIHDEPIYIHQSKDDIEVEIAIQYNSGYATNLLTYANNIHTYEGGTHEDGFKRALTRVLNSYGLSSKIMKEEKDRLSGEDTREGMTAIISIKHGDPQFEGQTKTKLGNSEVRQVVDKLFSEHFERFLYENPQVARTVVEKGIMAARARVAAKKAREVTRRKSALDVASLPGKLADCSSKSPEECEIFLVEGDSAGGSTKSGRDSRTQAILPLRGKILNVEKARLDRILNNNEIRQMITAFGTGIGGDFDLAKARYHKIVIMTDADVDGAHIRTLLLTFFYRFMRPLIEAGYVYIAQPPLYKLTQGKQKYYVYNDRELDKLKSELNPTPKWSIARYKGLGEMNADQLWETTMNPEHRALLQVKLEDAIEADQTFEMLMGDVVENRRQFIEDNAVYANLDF
T1 sequence (P20831 whole entry partner): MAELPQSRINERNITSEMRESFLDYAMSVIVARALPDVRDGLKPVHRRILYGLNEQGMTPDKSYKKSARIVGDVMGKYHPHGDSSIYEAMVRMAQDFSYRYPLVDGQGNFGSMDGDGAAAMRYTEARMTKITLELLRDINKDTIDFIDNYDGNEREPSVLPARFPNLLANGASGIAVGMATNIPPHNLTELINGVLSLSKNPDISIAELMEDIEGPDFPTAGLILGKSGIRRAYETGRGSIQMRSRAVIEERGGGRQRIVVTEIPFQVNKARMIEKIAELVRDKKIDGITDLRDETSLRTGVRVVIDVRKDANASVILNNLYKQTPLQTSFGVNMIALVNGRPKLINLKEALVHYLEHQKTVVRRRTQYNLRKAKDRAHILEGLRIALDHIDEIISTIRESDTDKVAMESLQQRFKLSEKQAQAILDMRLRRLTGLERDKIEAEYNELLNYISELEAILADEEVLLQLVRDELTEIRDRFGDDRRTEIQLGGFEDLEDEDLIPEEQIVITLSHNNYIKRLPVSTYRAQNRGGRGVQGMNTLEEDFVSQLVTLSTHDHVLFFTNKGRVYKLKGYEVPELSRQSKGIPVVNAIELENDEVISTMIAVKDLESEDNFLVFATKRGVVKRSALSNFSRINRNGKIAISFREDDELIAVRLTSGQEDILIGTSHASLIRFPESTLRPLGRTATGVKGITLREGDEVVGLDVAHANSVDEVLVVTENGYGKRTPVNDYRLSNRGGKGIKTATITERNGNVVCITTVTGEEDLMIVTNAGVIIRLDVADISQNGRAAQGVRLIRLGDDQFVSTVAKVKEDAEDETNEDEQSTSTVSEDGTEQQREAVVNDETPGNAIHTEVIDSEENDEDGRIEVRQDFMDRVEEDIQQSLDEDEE
DNA gyrase subunit B (Staphylococcus aureus), sequence (P0A0K8 2-644 limits assumed): as the sequence (P0A0K8 2-644 limits assumed) above
DNA gyrase subunit B, sequence (P0A0K8 whole entry): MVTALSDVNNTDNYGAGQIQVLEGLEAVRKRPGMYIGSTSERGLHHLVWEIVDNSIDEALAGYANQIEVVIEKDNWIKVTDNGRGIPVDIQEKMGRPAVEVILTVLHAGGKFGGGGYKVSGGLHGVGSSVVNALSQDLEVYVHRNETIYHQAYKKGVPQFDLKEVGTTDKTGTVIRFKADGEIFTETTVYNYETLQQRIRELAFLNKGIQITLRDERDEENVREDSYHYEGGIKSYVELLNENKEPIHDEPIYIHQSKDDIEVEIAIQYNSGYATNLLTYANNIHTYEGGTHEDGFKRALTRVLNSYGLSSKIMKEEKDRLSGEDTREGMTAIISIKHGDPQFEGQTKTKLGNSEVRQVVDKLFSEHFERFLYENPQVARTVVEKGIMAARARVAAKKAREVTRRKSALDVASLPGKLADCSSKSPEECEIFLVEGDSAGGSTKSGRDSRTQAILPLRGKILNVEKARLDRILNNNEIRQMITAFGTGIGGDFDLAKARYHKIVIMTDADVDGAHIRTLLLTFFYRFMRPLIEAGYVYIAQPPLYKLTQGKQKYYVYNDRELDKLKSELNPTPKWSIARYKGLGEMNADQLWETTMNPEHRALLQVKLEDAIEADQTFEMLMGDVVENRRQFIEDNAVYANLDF

Regarding `COc1cccc([C@@H]2Nc3c(ccc(C(=O)O)c3C)[C@H]3C=CC[C@H]32)c1`, the MIC with Staphylococcus aureus [1] was found to be 125 µg/mL (≈ 373 µM); against Staphylococcus aureus [2], 62.5 µg/mL (≈ 186 µM).

With `CCOC(=O)C1=c2s/c(=C/c3ccccc3I)c(=O)n2C(N)=C(C#N)[C@@H]1c1ccccc1I`, the MIC with Staphylococcus aureus [1] and with Staphylococcus aureus [2] was 264 µg/mL (≈ 387 µM) each time.

For `O=C(O)C[C@H](c1ccccc1)N1C(=O)/C(=C/c2ccccc2Cl)SC1=S`, the MIC in the test on Escherichia coli [3] is more than 100 µg/mL; against Staphylococcus aureus [5], 46.5 µM (≈ 18.8 µg/mL); in the test with Staphylococcus aureus [10], 31 µM (≈ 12.5 µg/mL). Besides, the IC50 on DNA gyrase subunit B was 100 µM. Moreover, the inhibition entry (in the test with Escherichia coli [4]; in test [6]) was “inactive” in each case. Further, the residual activity was 76% in [7], 25% in test [8], 84% in test [9] and 52% in [11].

With `COc1ccc(C(=O)C2=C(O)C(=O)N(CCc3c[nH]c4ccccc34)[C@@H]2c2ccccc2Cl)cc1`, the MIC against Staphylococcus aureus [1] and against Staphylococcus aureus [2] was 253 µg/mL (≈ 520 µM) in each case.

In the case of `O=C(O)C[C@H](C(=O)O)N1C(=O)/C(=C\c2ccc(-c3cc(Cl)ccc3Cl)o2)SC1=S`, the MIC against Escherichia coli [3] is more than 100 µg/mL; in the test on Staphylococcus aureus [5], 159 µM (≈ 75.1 µg/mL); with Staphylococcus aureus [10], 159 µM (≈ 75.1 µg/mL). On DNA gyrase subunit B, the IC50 was found to be 30 µM. For the same compound, the inhibition result (in the test with Escherichia coli [4]; in [6]) was “inactive” each time. Besides, the residual activity in [7] was 66%; in test [8] it was 23%; in test [9], 84%; in test [11] it was 23%. Also, the inhibition entry in test [12] was “Active”.

On to `NC(=O)NC(=O)COC(=O)c1ccc(Cl)c(S(=O)(=O)N(Cc2ccccc2)c2ccc(Cl)cc2)c1`, for which the MIC worked out at 500 µg/mL (≈ 932 µM) against Staphylococcus aureus [1] and 125 µg/mL (≈ 233 µM) in the test on Staphylococcus aureus [2].

As for `Cc1cccc(NS(=O)(=O)c2cc(C(N)=O)ccc2Cl)c1C`, the MIC against Staphylococcus aureus [1] and in the test on Staphylococcus aureus [2] was 62.5 µg/mL (≈ 184 µM) throughout.

As to `CC(=O)Oc1ccc([C@@H]2Oc3nc(SCc4ccccc4Cl)nnc3-c3ccccc3N2C(C)=O)cc1Br`, the minimum inhibitory concentration (MIC) in the test with Staphylococcus aureus [1] and in the test with Staphylococcus aureus [2] was 512 µg/mL (≈ 838 µM) in each case.

Consider `C/C(=N\NC(=O)c1nnn(-c2nonc2N)c1CN1CCc2ccccc21)c1ccc(O)cc1O`, for which the MIC with Staphylococcus aureus [1] and with Staphylococcus aureus [2] was 525 µg/mL (≈ 1100 µM) throughout.

In the case of `COc1cc([C@H]2OC[C@H]3[C@H]2CO[C@@H]3c2ccc(O)c(OC)c2)ccc1O`, the MIC with Staphylococcus aureus [1] came out at 500 µg/mL (≈ 1400 µM); with Staphylococcus aureus [2], 62.5 µg/mL (≈ 174 µM).

Take `CO[C@@H]1[C@@H](OC(N)=O)[C@@H](O)[C@H](Oc2ccc3c(O)c(NC(=O)c4ccc(O)c(CC=C(C)C)c4)c(=O)oc3c2C)OC1(C)C` [NOVOBIOCIN]: the inhibition entry in the test with Escherichia coli [4] was “inactive”. Also, the values for the MIC against Staphylococcus aureus [5], against Staphylococcus aureus [1] and against Staphylococcus aureus [10] were less than 1.27 µM, less than 1.95 µg/mL and less than 1.27 µM, respectively.

On to `COc1ccc(N(CC(=O)Nc2ccccc2C(N)=O)S(=O)(=O)c2ccccc2)c(OC)c1`, for which the minimum inhibitory concentration (MIC) was determined as 250 µg/mL (≈ 532 µM) against Staphylococcus aureus [1] and 62.5 µg/mL (≈ 133 µM) against Staphylococcus aureus [2].

For the compound `O=C1C[C@H](c2cccc(O)c2)Nc2ccc3ccccc3c21`, the MIC in the test on Staphylococcus aureus [1] and against Staphylococcus aureus [2] was 62.5 µg/mL (≈ 216 µM) each time.

Take `CCc1ccccc1N1C(=O)/C(=C/c2cccc(O)c2)SC1=S`: the MIC is more than 100 µg/mL in the test on Escherichia coli [3], 27 µM (≈ 9.22 µg/mL) in the test with Staphylococcus aureus [5] and 13.5 µM (≈ 4.61 µg/mL) with Staphylococcus aureus [10]. Moreover, the inhibition entry with Escherichia coli [4] is “inactive”. Besides, the inhibition result in test [13] was “Active”.

Take `Cc1cccc([C@]2(C)CC(C)(C)N(C(=O)CSc3nc[nH]n3)c3ccccc32)c1`: the MIC was 500 µg/mL (≈ 1230 µM) against Staphylococcus aureus [1] and 125 µg/mL (≈ 307 µM) against Staphylococcus aureus [2].

On to `COc1cc([C@@H]2C3=C(CCCC3=O)Nc3[nH]c(SCc4ccccc4Cl)nc(=O)c32)ccc1O`, for which the MIC with Staphylococcus aureus [1] and in the test with Staphylococcus aureus [2] was 500 µg/mL (≈ 1010 µM) throughout.
